The results in this text go back to patent publication US8697385B1, “Protein controlling synthesis of collagen and associated methods” (Florida State University Research Foundation, Inc., priority 2009, dated 2014).

For assay [1], the system named is LARP6 and nonmuscle myosin. Nature of the assay: Coimmunoprecipitation of nonmuscle myosin IIB with HA-tagged LARP6. In kind it is cell-based, human. The note with it: lung fibroblasts; ML-7-treated vs control cells. On the procedure:
ML-7, blebbistatin, cytochalasin B, puromycin, and cycloheximide were purchased from Sigma. ML-7 was used at 40 μM, blebbistatin was used at 100 μM, and cytochalasin B was used at 20 μM. Cells were incubated with the drugs for 16 h before analysis. Puromycin (200 μg/ml) and cycloheximide (100 μg/ml) were added to the cells for 2 h. Human lung fibroblasts have been described previously.16 Scleroderma fibroblasts were purchased from the European Collection of Cell Cultures (cell line BM0070) and derived from the skin of a scleroderma patient. MEFs were derived from knock-in mice in which the 5′SL of the collagen α1(I) gene has been mutated (Parsons et al., submitted). Several independent cell isolates were used throughout the study. All cells were cultured in Dulbecco's modified Eagle's medium supplemented with 10% fetal bovine serum for up to 10 passages. Plasmid constructs and adenovirus preparation. […] [^32P]dCTP was included in the PCR step to label the products, which were resolved on sequencing gels, as described previously.^8,31,49,50 When RNA from polysomal fractions was analyzed, an equal aliquot of each fraction was used. […]
One of the roles of nonmuscle myosin filaments may be to present collagen mRNAs to ribosomes. Therefore, we assessed if the association of collagen mRNAs with nonmuscle myosin is dependent on intact polysomes. […]

For assay [2], the system named is polysomes. Nature of the assay: Fractionation of polysomes on sucrose gradients. In kind it is cell-based, human. On the procedure:
ML-7, blebbistatin, cytochalasin B, puromycin, and cycloheximide were purchased from Sigma. ML-7 was used at 40 μM, blebbistatin was used at 100 μM, and cytochalasin B was used at 20 μM. Cells were incubated with the drugs for 16 h before analysis. Puromycin (200 μg/ml) and cycloheximide (100 μg/ml) were added to the cells for 2 h. Human lung fibroblasts have been described previously.16 Scleroderma fibroblasts were purchased from the European Collection of Cell Cultures (cell line BM0070) and derived from the skin of a scleroderma patient. MEFs were derived from knock-in mice in which the 5′SL of the collagen α1(I) gene has been mutated (Parsons et al., submitted). Several independent cell isolates were used throughout the study. All cells were cultured in Dulbecco's modified Eagle's medium supplemented with 10% fetal bovine serum for up to 10 passages. Plasmid constructs and adenovirus preparation. The HA-tagged LARP6 clone and the deletion mutants have been described previously.^16 Adenoviruses were constructed by recloning of the constructs into the pAdCMVTRACK vector, followed by recombination with the pAdEasy vector and amplification, as described previously.^48 Expression of each construct was verified by Western blot analysis. The viruses made express both the full-size test protein and the green fluorescent protein (GFP), which is encoded by an independent transcription unit.^48 Expression of GFP served as control for viral transduction. RT-PCR analysis Total cellular RNA was isolated using an RNA isolation kit (Sigma). RT-PCRs were performed with 100 ng of total RNA or using rTth reverse transcriptase (Boca Scientific, Boca Raton, Fla.). [^32P]dCTP was included in the PCR step to label the products, which were resolved on sequencing gels, as described previously.^8,31,49,50 When RNA from polysomal fractions was analyzed, an equal aliquot of each fraction was used. The number of cycles was adjusted to within the linear range of the reaction. The primers used for RT-PCR were as follows: h-collagen α1(I), 5′ primer […] (SEQ ID NO:3) and 3′ primer […] (SEQ ID NO:4); h-collagen α2(I), 5′ primer […] (SEQ ID NO:5) and 3′ primer […] (SEQ ID NO:6).
Polysomes were fractionated as described previously.^16 Sucrose fractions (0.5 ml) were collected, and total RNA was extracted by phenol/chloroform and isopropanol precipitation. Equivalent amounts of each fraction were analyzed by RT-PCR. Total proteins were extracted from sucrose fractions by trichloroacetic acid precipitation, and equivalent amounts were analyzed by Western blot analysis.
One of the roles of nonmuscle myosin filaments may be to present collagen mRNAs to ribosomes. Therefore, we assessed if the association of collagen mRNAs with nonmuscle myosin is dependent on intact polysomes. […] Only the anti-myosin antibody immunoprecipitated collagen α1(I) and α2(I) mRNAs (lane 1). We then immunoprecipitated nonmuscle myosin from lung fibroblasts treated with cycloheximide or puromycin and analyzed if this can change the pull-down of collagen mRNAs. As control, the association with vimentin was analyzed in the same samples (FIG. 9b). […] The association of collagen mRNAs with vimentin increased after the dissociation of polysomes (lanes 3 and 4). […] To assess if nonmuscle myosin copurifies with polysomes, we fractionated polysomes on sucrose gradients^16 and analyzed for the presence of nonmuscle myosin in the fractions using Western blot analysis (FIG. 9f). […]

For the compound `O=S(=O)(c1cccc2c(I)cccc12)N1CCCNCC1` [ML-7], the “myosin IIB pulled down with LARP6” value in assay [1] is “significantly less”. Besides, the “nonmuscle myosin in polysomal fractions” value in assay [2] (15-45% sucrose gradient, Western blot, puromycin or ML-7 treatment) is “decrease in the amount of nonmuscle myosin in the heaviest fractions”. Further, in assay [2] (ML-7-treated vs control cells, RT-PCR of fractions), the “distribution of collagen α1(I) and α2(I) mRNAs in polysomal fractions” value was “a small fraction of collagen α1(I) and α2(I) mRNAs were shifted into nonpolysomal fractions 16 and 17”. The “overall distribution of polysomes” value in assay [2] (ML-7 treatment) is reported as “did not have an effect”. Besides, the “total level of collagen α1(I) and α2(I) mRNAs” value in assay [2] (ML-7 treatment, RT-PCR, sum of all fractions) is reported as “not significantly affected”.
